Experimental data from patent US9815851B2, “Pyrrolo carboxamides as modulators of orphan nuclear receptor RAR-related orphan receptor-gamma (RORγ, NR1F3) activity and for the treatment of chronic inflammatory and autoimmune diseases” (PHENEX PHARMACEUTICALS AG, priority 2011, dated 2017).
Like-named read-outs stand apart in the source and are kept apart here.

Tests used:
[1] = biological target: T1, RORγ ligand binding domain (LBD) (Homo sapiens, UniProt P51449); test: TR-FRET Activity Assay (ligand sensing, RORγ-LBD / coactivator peptide interaction, LANCE); type: biochemical
T1 construct: made in house; host or cells: E. coli BL-21 (BL3), vector pDEST15
T1 sequence (P51449 269-508 limits assumed): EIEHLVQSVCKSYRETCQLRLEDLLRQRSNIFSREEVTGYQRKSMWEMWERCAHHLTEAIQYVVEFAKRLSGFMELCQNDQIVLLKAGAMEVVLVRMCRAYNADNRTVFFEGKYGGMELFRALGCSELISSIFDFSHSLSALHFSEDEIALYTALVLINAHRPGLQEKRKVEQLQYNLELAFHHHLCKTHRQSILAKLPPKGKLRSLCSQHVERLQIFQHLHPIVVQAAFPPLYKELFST

[2] = biological target: T2, RORγ (UniProt P51449); test: RORγ Gal4 Reporter Gene Assay in 293T cells (firefly and renilla luciferase); type: cell-based, human
T2 sequence (P51449 1-518): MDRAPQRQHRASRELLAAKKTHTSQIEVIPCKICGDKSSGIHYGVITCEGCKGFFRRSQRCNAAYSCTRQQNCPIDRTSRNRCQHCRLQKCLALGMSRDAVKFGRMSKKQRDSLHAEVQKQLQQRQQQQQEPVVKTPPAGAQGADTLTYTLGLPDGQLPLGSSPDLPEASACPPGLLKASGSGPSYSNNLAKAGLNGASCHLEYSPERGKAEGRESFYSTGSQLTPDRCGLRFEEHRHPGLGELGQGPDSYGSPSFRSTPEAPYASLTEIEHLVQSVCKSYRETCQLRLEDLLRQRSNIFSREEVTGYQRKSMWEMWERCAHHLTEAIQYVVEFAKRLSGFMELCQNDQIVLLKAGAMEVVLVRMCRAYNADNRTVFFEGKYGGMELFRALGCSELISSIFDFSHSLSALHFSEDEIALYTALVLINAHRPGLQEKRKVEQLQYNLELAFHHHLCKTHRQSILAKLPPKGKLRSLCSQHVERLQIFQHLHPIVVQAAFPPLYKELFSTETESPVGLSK

[3] = first value of the cell FRET/FF/REN, TR-FRET activity assay, read-out: pIC50 (FRET) (converted)
[4] = second value of the cell, Gal4 reporter gene assay in 293T cells, firefly luciferase
[5] = third value of the cell, Gal4 reporter gene assay in 293T cells, renilla normalised luciferase

Compound | IC50 [1, 3] | pIC50 (FF) [2, 4] | pIC50 (REN) [2, 5] | IC50 [1] | pIC50 (FF) [2] | pIC50 (REN) [2]
CCN(C(C)(C)C)S(=O)(=O)c1ccc(-c2cc(C(=O)NC3CCOCC3)c(C)n2CC2CCCCC2)cc1C(F)(F)F [17/85] | – | – | – | > 20 µM | <4.7/7.4/7.5 | <4.7/7.4/7.5
Cc1c(C(=O)NCC(C)(C)O)cc(-c2cc(C(C)(C)C)c3c(c2)C(C)(C)CO3)n1CC1CCCCC1 [17/86] | 0.316 µM | 7.1 | 7.1 | – | – | –
Cc1c(C(=O)NC2CCOCC2)cc(-c2ccc(S(=O)(=O)NC(C)(C)C)c(C(F)(F)F)c2)n1CC1CCCC(C(F)(F)F)C1 (stereo not drawn) [17/87] | – | – | – | 0.501 µM | 6.3/6.9/6.9 | 6.3/6.9/6.9
Cc1c(C(=O)NCC2(C(N)=O)CCOCC2)cc(-c2ccc(S(=O)(=O)NC(C)(C)C)c(C(C)(C)C)c2)n1CC1CCCCC1 [17/90] | – | – | – | 1.58 µM | 5.8/7.9/8.0 | 5.8/7.9/8.0
Cc1c(C(=O)NC2CS(=O)(=O)C2)cc(-c2ccc(S(=O)(=O)NC(C)(C)C)c(C(C)(C)C)c2)n1CC1CCCCC1 [17/91] | – | – | – | 0.631 µM | 6.2/7.1/7.0 | 6.2/7.1/7.0
Cc1c(C(=O)NC2CCS(=O)(=O)CC2)cc(-c2ccc(S(=O)(=O)NC(C)(C)C)c(C(C)(C)C)c2)n1CC1CCCCC1 [17/92] | – | – | – | 1 µM | 6.0/7.3/7.1 | 6.0/7.3/7.1
Cc1c(C(=O)N2CCC(C)(O)CC2)cc(-c2ccc(S(=O)(=O)NC(C)(C)C)c(C(C)(C)C)c2)n1CC1CCCCC1 [17/93] | 1 µM | 6.8 | 6.9 | – | – | –
Cc1c(C(=O)NC2CCOCC2)cc(-c2ccc(S(=O)(=O)N3CCCC(C(F)(F)F)C3)c(C(C)(C)C)c2)n1CC1CCCCC1 (stereo not drawn) [17/102] | – | – | – | 0.251 µM | 6.6/6.8/6.9 | 6.6/6.8/6.9
CC(=O)c1cc(-c2cc(C(=O)NC3CCOCC3)c(C)n2CC2CCCCC2)cc(C(C)(C)C)c1 [17/103] | – | – | – | 0.794 µM | 6.1/6.7/6.8 | 6.1/6.7/6.8
Cc1c(C(=O)NC2CCOCC2)cc(-c2cc3c(c(C(C)(C)C)c2)OCCC3=O)n1CC1CCCCC1 [17/104] | 0.501 µM | 6.5 | 6.7 | – | – | –
Cc1c(C(=O)NC2CCOCC2)cc(-c2cc3c(c(C(C)(C)C)c2)OCCC3O)n1CC1CCCCC1 (stereo not drawn) [17/105] | 2 µM | 6.1 | 6.3 | – | – | –
Cc1c(C(=O)NC2CCOCC2)cc(-c2ccc(S(=O)(=O)NC(C)(C)CCO)c(C(F)(F)F)c2)n1CC1CCCCC1 [17/108] | 1 µM | 6.9 | 7.1 | – | – | –
COCC(C)(C)NS(=O)(=O)c1ccc(-c2cc(C(=O)NC3CCOCC3)c(C)n2CC2CCCCC2)cc1C(F)(F)F [17/109] | – | – | – | 0.631 µM | 6.2/7.2/7.3 | 6.2/7.2/7.3
Cc1c(C(=O)NC2CCOCC2)cc(-c2ccc(S(=O)(=O)NC(C)C)c(C(F)(F)F)c2)n1CC1CCCCC1 [17/112] | 0.316 µM | 7.4 | 7.5 | – | – | –
Cc1c(C(=O)NCCCCCS(N)(=O)=O)cc(-c2cc(C(C)(C)C)c3c(c2)C2(CCO3)CC2)n1CC1CCCCC1 [17/114] | 0.631 µM | 6.5 | 6.4 | – | – | –
Cc1c(C(=O)NC2CCOCC2)cc(-c2ccc(S(=O)(=O)NC(C)(C)C)c(C(F)F)c2)n1CC1CCCCC1 [17/115] | – | – | – | 0.316 µM | 6.5/7.9/8.0 | 6.5/7.9/8.0
CC(C)(C)NS(=O)(=O)c1ccc(-c2cc(C(=O)NC3CCOCC3)cn2CC2CCCCC2)cc1C(C)(C)C [17/116] | – | 7.3 | 7.3 | 0.631 µM | – | –
CC(C)(C)NS(=O)(=O)c1ccc(-c2cc(C(=O)NC3CCOCC3)c(CO)n2CC2CCCCC2)cc1C(C)(C)C [17/117] | – | – | – | 1 µM | 6.0/7.6/7.7 | 6.0/7.6/7.7
CCNC(=O)NC(C)(C)CNC(=O)c1cc(-c2cc(C(C)(C)C)c3c(c2)C2(CCO3)CC2)n(CC2CCCCC2)c1C [17/120] | 2.51 µM | 6.1 | 6.0 | – | – | –
Cc1c(C(=O)NCC(C)(C)NC(=O)C(C)O)cc(-c2cc(C(C)(C)C)cc(C3(C)CC3)c2)n1CC1CCCCC1 (stereo not drawn) [17/121] | 0.316 µM | 7.6 | 7.7 | – | – | –
COCC(=O)NC(C)(C)CNC(=O)c1cc(-c2cc(C(C)(C)C)cc(C3(C)CC3)c2)n(CC2CCCCC2)c1C [17/122] | – | – | – | 0.398 µM | 6.4/7.6/7.5 | 6.4/7.6/7.5
Cc1c(C(=O)NCC(C)(C)NC(=O)C(C)O)cc(-c2cc(C(C)(C)C)c3c(c2)C2(CCO3)CC2)n1CC1CCCCC1 (stereo not drawn) [17/123] | – | – | – | 3.16 µM | 5.5/7.0/7.0 | 5.5/7.0/7.0
COCC(=O)NC(C)(C)CNC(=O)c1cc(-c2cc(C(C)(C)C)c3c(c2)C2(CCO3)CC2)n(CC2CCCCC2)c1C [17/124] | – | – | – | 0.794 µM | 6.1/7.4/7.5 | 6.1/7.4/7.5
CCN(C(C)(C)C)S(=O)(=O)c1ccc(-c2cc(C(=O)NC3CCOCC3)c(C)n2CC2CCCCC2)cc1C(F)F [17/125] | – | – | – | 0.0794 µM | 7.1/6.4/6/ | 7.1/6.4/6/
Cc1c(C(=O)NCC(C)(C)C(=O)O)cc(-c2ccc(S(=O)(=O)NC(C)(C)C)c(C(F)F)c2)n1CC1CCCCC1 [17/127] | 0.316 µM | 7.1 | 7.2 | – | – | –

Now from value to molecule, other results behind:

IC50 [1, 3] | pIC50 (FF) [2, 4] | pIC50 (REN) [2, 5] | Compound | IC50 [1] | pIC50 (FF) [2] | pIC50 (REN) [2]
1.58 µM | 6.9 | 6.9 | Cc1c(C(=O)NC2CCNC(=O)C2)cc(-c2ccc(S(=O)(=O)NC(C)(C)C)c(C(C)(C)C)c2)n1CC1CCCCC1 (stereo not drawn) [17/89] | – | – | –
1.26 µM | 6.8 | 6.7 | Cc1c(C(=O)N2CC(O)C2)cc(-c2ccc(S(=O)(=O)NC(C)(C)C)c(C(C)(C)C)c2)n1CC1CCCCC1 [17/94] | – | – | –
0.631 µM | 7.8 | 7.7 | Cc1c(C(=O)N(C)C2CCOCC2)cc(-c2ccc(S(=O)(=O)NC(C)(C)C)c(C(C)(C)C)c2)n1CC1CCCCC1 [17/95] | – | – | –
3.16 µM | 6.9 | 7.0 | Cc1c(C(=O)NC2CCOCC2)cc(-c2cc(S(=O)(=O)N3CCCCC3)c3ccccn23)n1CC1CCCCC1 [17/96] | – | – | –
0.126 µM | 8.0 | 8.0 | Cc1c(C(=O)NC2CCOCC2)cc(-c2ccc(S(=O)(=O)NC(C)(C)C)c(C(F)(F)F)c2)n1CC1CCCCC1 [17/97] | – | – | –
0.316 µM | 6.8 | 6.9 | CCNC(=O)c1cc(-c2ccc(S(=O)(=O)NC(C)(C)C)c(C(C)(C)C)c2)n(CC2CCCCC2)c1C [17/98] | – | – | –
0.251 µM | 6.9 | 7.0 | Cc1c(C(=O)NC2CC2)cc(-c2ccc(S(=O)(=O)NC(C)(C)C)c(C(C)(C)C)c2)n1CC1CCCCC1 [17/99] | – | – | –
0.794 µM | 7.7 | 7.7 | Cc1c(C(=O)NC2CCOCC2)cc(-c2ccc(S(=O)(=O)NCC(F)(F)F)c(C(C)(C)C)c2)n1CC1CCCCC1 [17/101] | – | – | –
0.501 µM | 7.3 | 7.3 | Cc1c(C(=O)NC2CCOCC2)cc(-c2ccc(S(=O)(=O)NC(C)(C)C)c(OC(F)F)c2)n1CC1CCCCC1 [17/106] | – | – | –
1 µM | 6.9 | 6.9 | Cc1c(C(=O)NC2CCOCC2)cc(-c2ccc(S(=O)(=O)NC(C)(C)CO)c(C(F)(F)F)c2)n1CC1CCCCC1 [17/107] | – | – | –
2 µM | 6.3 | 6.5 | CNS(=O)(=O)c1ccc(-c2cc(C(=O)NC3CCOCC3)c(C)n2CC2CCCCC2)cc1C(F)(F)F [17/110] | – | – | –
0.316 µM | 7.2 | 7.3 | CCCNS(=O)(=O)c1ccc(-c2cc(C(=O)NC3CCOCC3)c(C)n2CC2CCCCC2)cc1C(F)(F)F [17/111] | – | – | –
0.501 µM | 6.8 | 6.8 | Cc1c(C(=O)NC2CCOCC2)cc(-c2cc(Cl)c(S(=O)(=O)NC(C)(C)C)c(C(F)(F)F)c2)n1CC1CCCCC1 [17/113] | – | – | –
10 µM | 6.3 | 6.5 | CC(C)(C)NS(=O)(=O)c1ccc(-c2cc(C(=O)NC3CCOCC3)c(CF)n2CC2CCCCC2)cc1C(C)(C)C [17/118] | – | – | –
0.501 µM | 7.6 | 7.7 | CC(C)(C)NS(=O)(=O)c1ccc(-c2cc(C(=O)NC3CCOCC3)c(Cl)n2CC2CCCCC2)cc1C(C)(C)C [17/119] | – | – | –
0.316 µM | 6.7 | 6.9 | Cc1c(C(=O)NC2CCOCC2)cc(-c2ccc(S(=O)(=O)NC(C)(C)C)c(C(F)F)c2)n1CC1CCC1 [17/126] | – | – | –
